Patent US20250152552A1, “CANCER-CELL PROLIFERATION INHIBITOR AND CANCER-CELL-PROLIFERATION INHIBITION ENHANCER” (KYUSHU UNIVERSITY, NATIONAL UNIVERSITY CORPORATION, priority 2022, published 2025)

Tests used:
[1] = mouse, oral administration; Biol. Pharm. Bull, 42, 212-221, 2019; cited from earlier work
[2] = tested on: MC38 mouse colon cancer cell line; test: Administration of EGC-M5 alone, subcutaneous MC38 tumor growth in mice (Comparative Example); type: in vivo; details: 16 days after transplantation; EGC-M5 5, 10, 20 and 30 mg/kg b.w. i.p. daily; vs control group, Tukey test
Protocol: After preparatory rearing, MC38 mouse colon cancer cell line was transplanted subcutaneously into the 6-weeks-old male C57BL/6 mice at an amount of 5.0×10^5 cells/mouse. Each group had 8 mice. EGC-M5 was dissolved in the PBS buffer containing 10% DMSO. 200 μL of EGC-M5 solution at a dose of 5 mg, 10 mg, 20 mg, and 30 mg/kg b.w. was intraperitoneally administered to the mice daily starting on day 4 after transplantation. The tumor volume was measured with the vernier calipers, and the growth of the tumor was evaluated with time.
Regarding to the mean (Mean) and the standard error (S.E.) of the tumor volume (natural logarithm) 16 days after transplantation, the significant difference between the control group (Control group) and the EGC-M5 administration group was assessed by Tukey's Multiple Comparison test.

SMILES: O=C1CC[C@H](Cc2cc(O)cc(O)c2)O1 [EGC-M5, (R)-5-(3,5-dihydroxyphenyl)-γ-valerolactone]
- conjugates detected in serum [1]: the sulfate conjugate and the glucuronic acid conjugate of the compound of 5-(3,5-dihydroxyphenyl)-γ-valerolactone are detected in the serum
- tumor volume (natural logarithm) [2]: no significant differences were observed in the tumor volume values
